Measured values as given in patent publication US8946229B2, “Formulations” (UCB, Inc., priority 2002, dated 2015).

Assay: Reactivity of polyols with active compounds of formula I
Type: physicochemical

## OC[C@H]1O[C@@H](O[C@H]2[C@H](O)[C@@H](O)C(O)O[C@@H]2CO)[C@H](O)[C@@H](O)[C@H]1O (stereo partly shown) [Lactose]
  Reactivity with the active compounds of formula I (undesired reaction products): practically no reactivity
